The target of assay [1] is 5-hydroxytryptamine receptor 2B (Homo sapiens, UniProt P41595).
Assay [2] concerns the target T1, 5-hydroxytryptamine receptor 2C (Homo sapiens, UniProt P28335).
T1 sequence (P28335 whole entry): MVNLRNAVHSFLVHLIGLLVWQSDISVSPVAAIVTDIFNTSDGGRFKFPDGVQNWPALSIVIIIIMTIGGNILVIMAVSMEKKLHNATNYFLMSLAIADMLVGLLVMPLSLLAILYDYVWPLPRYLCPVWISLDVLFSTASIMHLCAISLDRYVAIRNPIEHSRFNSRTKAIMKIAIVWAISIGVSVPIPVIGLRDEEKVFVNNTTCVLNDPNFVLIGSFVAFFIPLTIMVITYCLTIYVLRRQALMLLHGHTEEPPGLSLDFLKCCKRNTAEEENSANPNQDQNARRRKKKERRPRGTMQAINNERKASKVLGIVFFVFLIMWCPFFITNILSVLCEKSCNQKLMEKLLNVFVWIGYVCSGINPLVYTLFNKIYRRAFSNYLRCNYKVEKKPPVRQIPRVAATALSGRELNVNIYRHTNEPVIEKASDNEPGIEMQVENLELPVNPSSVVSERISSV

The structures appear in SMILES notation. Where “and” joins values, the source holds several entries; their conditions need not be identical. Equal entries are not always repeated. Structures can show the parent of a compound that is named as a salt.

Sequence of 5-hydroxytryptamine receptor 2B (P41595 whole entry): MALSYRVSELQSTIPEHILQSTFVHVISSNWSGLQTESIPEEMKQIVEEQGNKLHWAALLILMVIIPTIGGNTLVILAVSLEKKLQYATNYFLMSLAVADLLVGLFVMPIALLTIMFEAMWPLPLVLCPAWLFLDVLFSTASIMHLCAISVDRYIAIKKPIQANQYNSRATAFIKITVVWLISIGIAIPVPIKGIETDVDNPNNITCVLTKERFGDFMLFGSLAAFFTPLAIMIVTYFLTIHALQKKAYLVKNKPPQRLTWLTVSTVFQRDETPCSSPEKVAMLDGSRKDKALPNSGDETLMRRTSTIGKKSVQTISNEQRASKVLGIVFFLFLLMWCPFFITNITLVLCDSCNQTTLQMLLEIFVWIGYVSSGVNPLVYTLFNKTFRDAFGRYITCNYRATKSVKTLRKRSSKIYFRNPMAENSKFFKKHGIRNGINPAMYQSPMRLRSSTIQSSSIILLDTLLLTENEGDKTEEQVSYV

For the compound `CN1CCN(c2nc3cc(C(F)(F)F)ccc3n3cccc23)CC1` [CAS_109028-10-6], the Ki (usually the equilibrium dissociation constant of an inhibitor or competing ligand from its target) in assay [1] came to 871 nM.

As to `COc1cc(CC(C)N)c(OC)cc1I` (stereo not drawn) [[125I]2,5-dimethoxy-4-iodoamphetamine], the inhibitory constant (Ki) in assay [1] is 28.2 nM and 53.7 nM; in assay [2], 8.32 nM and 5.37 nM. Turning to `CN1CC[C@@H]2CN3CCc4cccc(c43)[C@@H]2C1` [SDZ SER 082 FUMARATE], the inhibition constant Ki in assay [1] was found to be 204 nM; in assay [2], 7.59 nM. Consider `Clc1cncc(N2CCNCC2)n1` [L-630,571], for which the results for the inhibition constant (Ki) in assay [1] and in assay [2] were 617 nM and 97.7 nM, respectively. As to `NCCc1c[nH]c2ccc(C(N)=O)cc12` [[3H]-5-carboxamidotryptamine], the inhibition constant (Ki) in assay [1] was determined as 186 nM. With `CC(C)c1cc(-c2ccc(F)c3ccccc23)nc(N)n1` [RS-127445], the Ki in assay [1] was found to be 1.07 nM; in assay [2] it was 468 nM.

With `Cc1nc(-c2ccc(-c3ccc(C(=O)N4CCc5cc6c(cc54)C4(CCN(C)CC4)CO6)cc3)c(C)c2)no1` [4-[2-methyl-4-(5-methyl-1,2,4-oxadiazol-3-yl)phenyl]phenyl-1'-methylspiro[3,5,6,7-tetrahydro-2H-furo[2,3-f]indole-3,4'-(hexahydropyridine)]-5-ylmethanone], the Ki in assay [1] came out at 1350 nM; in assay [2] it was 2000 nM. The matching figures for `CC(N)Cn1ccc2cc(F)c(Cl)cc21` (stereo not drawn) [NSC_3045226]: 5.37 nM and 6.03 nM.

As to `C[C@H](N)CN1CCc2ccc(Br)cc21`, the inhibition constant (Ki) in assay [1] amounted to 30.2 nM; in assay [2], 5.62 nM.

As for `O=C(CCCN1CCC2(CC1)C(=O)NCN2c1ccccc1)c1ccc(F)cc1` [8-[4-(4-fluorophenyl)-4-oxidanylidene-butyl]-1-phenyl-1,3,8-triazaspiro[4.5]decan-4-one], the Ki in assay [2] is 603 nM. On the same count and under the same terms, to `CC(C)CC(N(C)C)C1(c2ccc(Cl)cc2)CCC1` (stereo not drawn) [CAS_106650-56-0] belongs > 10000 nM. In assay [1], `Cn1ccc2cc3c(cc21)CCN3C(=O)Nc1cccnc1` gave a Ki of 22.4 nM. For the compound `CN1CC(C(=O)NC2(C)OC3(O)C4CCCN4C(=O)C(Cc4ccccc4)N3C2=O)C=C2c3cccc4[nH]cc(c34)CC21` (stereo not drawn) [CAS_113-15-5], the Ki in assay [1] was determined as 1.29 nM; in assay [2], 1.91 nM. In assay [2], `CSc1ccc2c(c1)C(N1CCN(C)CC1)Cc1ccccc1S2` (stereo not drawn) [methanesulfonic acid;1-methyl-4-(3-methylsulfanyl-5,6-dihydrobenzo[b][1]benzothiepin-5-yl)piperazine] had a Ki of 4.47 nM. Regarding `FC(F)(F)c1ccc(N2CCNCC2)nc1Cl` [2-Chloro-3-(trifluoromethyl)-6-(1-piperazinyl)pyridine], the values for the inhibitory constant (Ki) in assay [1] and in assay [2] were 91.2 nM and 14.8 nM, respectively.

Consider `CN1CC(NS(=O)(=O)N(C)C)CC2c3cccc4c3c(cn4C)CC21` (stereo not drawn) [CAS_64795-35-3], for which the affinity in assay [1], expressed as Ki, was 3.47 nM. Same read-out and setting: under `CCCN(CCC)C1CCc2cccc(O)c2C1` (stereo not drawn) stands 4070 nM. As for `Cc1cc2c(cc1Cl)N(C(=O)Nc1ccc(Oc3cccnc3C)nc1)CC2` [CAS_181632-25-7], the inhibition constant Ki amounted to 145 nM in assay [1] and 7.08 nM in assay [2]. `Cc1cc(NC(=O)Nc2ccc3c(ccn3C)c2)sn1` [CAS_3277600] came in with a Ki in assay [1] of 126 nM.

For `C[C@H](N)Cc1cccc(C(F)(F)F)c1` [Norfenfluramine (+)], the Ki in assay [1] turned out to be 100 nM; in assay [2], 51.3 nM. `O=C1NCN(c2ccccc2)C12CCN(CCCOc1ccc(F)cc1)CC2` [NSC_77445] had a Ki in assay [2] of 1550 nM. Same read-out and setting: to `CC[C@@H](CO)NC(=O)[C@@H]1C=C2c3cccc4c3c(cn4C)C[C@H]2N(C)C1` belongs 4.47 nM. For the compound `c1ccc2nc(N3CCNCC3)ccc2c1` [2-Piperazin-1-yl-quinoline (Quipazine)], the Ki was 85.1 nM in assay [1] and 53.7 nM in assay [2]. The corresponding values for `OC(c1ccccc1)C1CCN(CCc2ccccc2)CC1` (stereo not drawn) [MDL-11939] are 3310 nM and 263 nM. `CC(C)CC(N)C1(c2ccc(Cl)cc2)CCC1` (stereo not drawn) [NSC_134771]: the Ki in assay [1] and in assay [2] was > 10000 nM each time.

With `Cn1cc(CCN)c2cc(O)ccc21` [5-HT,omega-N-Me], the Ki in assay [1] was determined as 6.92 nM; in assay [2], 2.69 nM. The corresponding values for `CCC(CO)NC(=O)C1C=C2c3cccc4[nH]cc(c34)CC2N(C)C1` (stereo not drawn) [NSC_8226] are 0.46 nM and 4.57 nM. The compound `CC(N)Cc1c[nH]c2ccc(OCc3cccs3)cc12` (stereo not drawn) [NSC_5311036] came in with an inhibition constant (Ki) in assay [2] of 77.6 nM. As for `COc1ccc2c(c1O[C@H]1CCNC1)CCC2` [ORG-37684], the Ki in assay [1] worked out at 42.7 nM; in assay [2], 7.59 nM.

The compound `FC(F)(F)c1cccc(N2CCNCC2)c1` [TFMPP] came in with a Ki in assay [1] of 58.9 nM. `CSc1cc2c(cc1C(F)(F)F)N(C(=O)Nc1cccnc1)CC2`: the inhibitory constant (Ki) in assay [1] was 2.45 nM; in assay [2], 2.19 nM. `NCCc1c[nH]c2ccccc12` [1H-indole-3-ethanamine]: the values for the inhibitory constant (Ki) in assay [1] and in assay [2] were 102 nM and 2340 nM, respectively.

In assay [1], `COc1cc(CC(C)N)c(OC)cc1Br` (stereo not drawn) [2-(4-Bromo-2,5-dimethoxy-phenyl)-1-methyl-ethylamine((-)-DOB)] came in with a Ki of 43.6 nM.

Consider `CCCN1CCCC2Cc3[nH]ncc3CC21` (stereo not drawn) [NSC_55397], for which the Ki in assay [1] was 302 nM; in assay [2], 3310 nM. As for `Cc1nc2sccn2c(=O)c1CCN1CCC(=C(c2ccc(F)cc2)c2ccc(F)cc2)CC1`, the results for the Ki in assay [1] and in assay [2] were 2.14 nM and 6.61 nM, respectively. The corresponding values for `COc1cc(OC)c(C(=O)CCCCN2CCC3(CC2)NC(=O)NC3=O)cc1NS(=O)(=O)c1ccc(C(F)(F)F)cc1` [N-[5-[5-(2,4-Dioxo-1,3,8-triazaspiro[4.5]decan-8-yl)-1-oxopentyl]-2,4-dimethoxyphenyl]-4-(trifluoromethyl)benzenesulfonamide] are 2880 nM and 5.01 nM.
